The results in this text go back to patent publication US5264429A, “2-spirocyclopropyl cephalosporin sulfone derivatives” (SynPhar Laboratories, Inc., priority 1991, dated 1993).

Molecules are shown by their SMILES. Some results are limits rather than exact numbers.

Assay [1] addresses T1, porcine pancreatic elastase (Sus scrofa, UniProt P00772).
T1 construct: from tissue; host or cells: porcine pancreas
The experiment in a line: Inhibition of porcine pancreatic elastase (PPE). To be noted: porcine pancreatic elastase 240 nM, pH 8.9, 10 minute preincubation, 30° C. In kind it is biochemical. As for the experimental part:
(§1) HLE, CTG, PPE and CTD were tested at 30° C. and the others were
(§2) aminopeptidase M; CTG, cathespin G; CTD, cathespin D; PPE, porcine
Porcine pancreatic Elastase (PPE)
Enzyme: Purified elastase from porcine pancreas
Substrate: MeO-succinyl-L-alanyl-L-alanyl-L-prolyl-L-valine-pNA
Reaction mixture: 50 mM Tris[Tris(hydroxymethyl) aminomethane]. HCl buffer (pH 8.9), 500 mM NaCl, 10% DMSO, 1.4 mM Substrate.
(§3) Except for Cathepsin D, the enzyme activities were determined by monitoring the increase in absorbance at 410 nm caused by the hydrolysis of chromogenic substrates. The activity of Cathepsin D was determined by monitoring the absorbance of 5% trichloroacetic acid-soluble material at 280 nm.
(§4) Inhibition of enzymes by the compounds described were determined after a 10 minute preincubation with enzymes in reaction mixtures minus substrate. Reactions were initiated by the addition of substrates. The concentration used for assays were porcine pancreatic elastase at 240 nM and human Cathepsin G at 50 nM. Cathepsin D was used at the concentration that produced approximately 0.15 O.D. increase per 20 min at 280 nm under the standard conditions. All other proteases were assayed at the concentrations that produced approximately 0.1 O.D. change per minute at 410 nm under the standard conditions.

For another assay, the target named is T2, cathepsin C (Bos taurus, UniProt Q3ZCJ8).
T2 construct: from tissue; host or cells: bovine spleen
T2 sequence (Q3ZCJ8 231-394 limits assumed): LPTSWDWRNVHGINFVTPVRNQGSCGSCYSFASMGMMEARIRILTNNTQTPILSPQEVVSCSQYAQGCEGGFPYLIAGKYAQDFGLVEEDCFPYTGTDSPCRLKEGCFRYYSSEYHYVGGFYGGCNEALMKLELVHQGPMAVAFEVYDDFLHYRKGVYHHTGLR
T2 sequence (Q3ZCJ8 395-463 limits assumed): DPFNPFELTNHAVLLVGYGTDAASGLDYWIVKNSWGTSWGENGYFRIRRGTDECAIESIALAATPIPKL
T2 sequence (Q3ZCJ8 25-134 limits assumed): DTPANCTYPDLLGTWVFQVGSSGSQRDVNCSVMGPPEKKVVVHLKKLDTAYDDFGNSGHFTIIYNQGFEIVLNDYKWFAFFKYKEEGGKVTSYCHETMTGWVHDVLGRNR
In words: Inhibition of cathepsin C (CTC). In kind it is biochemical, bovine. To be noted: cathepsin C, pH 5.4, 10 minute preincubation, 22° C.; read-out: IC50 CTC. As for the experimental part:
as §1
(§5) TRY, trypsin; THR, thrombin; PTH, plasmin; CTC, cathepsin C; ATM,
Enzyme: Purified cathepsin C from bovine spleen
Substrate: Glycyl-L-phenylalanine-pNA
Reaction mixture: 50 mM Citrate buffer (pH 5.4), 5 mM B-Mercaptoethanol, 150 mM NaCl, 10% DMSO, 20 mM Substrate.
as §3, §4

Another assay concerns the target T3, trypsin (Bos taurus, UniProt P00760).
T3 construct: from tissue; host or cells: bovine pancreas
T3 sequence (P00760 24-246): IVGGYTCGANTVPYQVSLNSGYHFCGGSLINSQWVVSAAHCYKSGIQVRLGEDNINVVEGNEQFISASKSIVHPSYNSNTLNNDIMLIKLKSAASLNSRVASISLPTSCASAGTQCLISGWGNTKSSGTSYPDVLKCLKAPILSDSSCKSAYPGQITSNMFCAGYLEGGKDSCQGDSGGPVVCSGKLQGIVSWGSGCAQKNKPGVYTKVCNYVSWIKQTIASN
In words: Inhibition of trypsin (TRY). It counts as biochemical, bovine. To be noted: trypsin, pH 8.8, 10 minute preincubation, 22° C.; read-out: IC50 TRY (converted).

Assay [2] concerns the target T4, human leukocyte elastase (HLE) (Homo sapiens, UniProt P08246).
T4 construct: from tissue; host or cells: human white blood cells
T4 sequence (P08246 30-247 limits assumed): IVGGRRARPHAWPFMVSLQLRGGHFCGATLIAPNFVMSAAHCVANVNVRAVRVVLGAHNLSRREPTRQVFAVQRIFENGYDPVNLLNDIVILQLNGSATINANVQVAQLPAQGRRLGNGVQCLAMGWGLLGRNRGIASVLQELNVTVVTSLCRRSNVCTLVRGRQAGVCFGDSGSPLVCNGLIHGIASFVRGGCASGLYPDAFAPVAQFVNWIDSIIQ
The experiment in a line: Enzyme Assay for Inhibition of HLE. In kind it is biochemical. Particulars: HLE 10 nM, pH 7.6, 10 minute preincubation, 30° C. The method, then:
Enzyme Assay for Inhibition of HLE:
Enzyme: Purified elastase from human white blood cells.
Substrate: MeO-succinyl-L-alanyl-L-alanyl-L-prolyl-L-valine-p-nitro-anilide(NA).
Reaction Mixture: 10 mM phosphate buffer (pH 7.6), 500 mM NaCl, 10% dimethylsulfoxide (DMSO), 0.35 mM substrate.
The enzyme activity was determined by monitoring the increase in absorbance at 410 nm caused by the hydrolysis of chromogenic substrates. Inhibition of enzyme by the compounds described were determined after a 10 minute preincubation with the enzyme in reaction mixture minus substrate. Reaction was initiated by the addition of substrate. The concentration of human leukocyte elastase used for assay was at 10 nM.
HLE, CTG, PPE and CTD were tested at 30° C. and the others were […]

Another assay has as its target T5, aminopeptidase M (Sus scrofa, UniProt P15145).
T5 construct: from tissue; host or cells: porcine kidney
T5 sequence (P15145 1-963): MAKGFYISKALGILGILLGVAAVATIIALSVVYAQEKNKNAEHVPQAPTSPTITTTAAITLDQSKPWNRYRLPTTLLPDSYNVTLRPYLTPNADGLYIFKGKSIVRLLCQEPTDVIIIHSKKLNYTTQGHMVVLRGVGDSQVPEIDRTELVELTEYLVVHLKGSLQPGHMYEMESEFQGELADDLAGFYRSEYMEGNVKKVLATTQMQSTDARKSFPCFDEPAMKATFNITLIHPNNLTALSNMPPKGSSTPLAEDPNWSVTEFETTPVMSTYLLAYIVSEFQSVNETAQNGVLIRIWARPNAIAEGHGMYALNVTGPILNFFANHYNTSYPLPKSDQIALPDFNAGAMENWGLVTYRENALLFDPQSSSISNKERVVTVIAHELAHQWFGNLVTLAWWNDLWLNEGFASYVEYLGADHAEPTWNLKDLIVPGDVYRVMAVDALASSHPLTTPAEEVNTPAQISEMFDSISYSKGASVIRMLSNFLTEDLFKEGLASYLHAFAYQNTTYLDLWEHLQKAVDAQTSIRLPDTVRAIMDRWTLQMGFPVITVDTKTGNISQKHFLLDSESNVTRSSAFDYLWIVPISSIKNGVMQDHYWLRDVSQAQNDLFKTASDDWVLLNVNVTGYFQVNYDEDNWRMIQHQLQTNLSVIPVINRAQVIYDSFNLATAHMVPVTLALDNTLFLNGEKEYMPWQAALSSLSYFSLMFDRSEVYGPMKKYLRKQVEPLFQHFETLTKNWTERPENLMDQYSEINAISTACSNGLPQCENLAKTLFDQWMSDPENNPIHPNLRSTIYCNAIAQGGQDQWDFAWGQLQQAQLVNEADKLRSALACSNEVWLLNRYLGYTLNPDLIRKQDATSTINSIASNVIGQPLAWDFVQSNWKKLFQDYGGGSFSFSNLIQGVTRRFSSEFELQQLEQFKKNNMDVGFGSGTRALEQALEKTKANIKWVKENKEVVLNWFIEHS
The experiment in a line: Inhibition of aminopeptidase M (ATM). In kind it is biochemical, porcine. Particulars: aminopeptidase M, pH 7.5, 10 minute preincubation, 22° C.; read-out: IC50 ATM. The method, then:
as §1, §5, §2
Enzyme: Purified aminopeptidase M from porcine kidney
Reaction Mixture: 50 mM Tricine buffer (pH 7.5), 500 mM NaCl, 10% DMSO, 2.0 mM Substrate.
as §3, §4

T1 sequence (P00772 27-266): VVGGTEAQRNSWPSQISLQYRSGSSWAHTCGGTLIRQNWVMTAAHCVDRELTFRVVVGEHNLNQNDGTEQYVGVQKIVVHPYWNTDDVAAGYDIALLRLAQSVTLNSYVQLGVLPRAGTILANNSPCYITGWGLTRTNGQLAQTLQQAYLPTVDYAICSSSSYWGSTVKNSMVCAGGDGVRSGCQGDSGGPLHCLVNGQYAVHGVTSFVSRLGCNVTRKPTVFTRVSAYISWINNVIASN
Experimental for trypsin: Enzyme: Purified trypsin from bovine pancreas
Substrate: Bz-L-arginine-p-NA
Reaction mixture: 50 mM Tricine[N-Tris(hydroxymethyl)methylglycine]-NaOH buffer (pH 8.8) 150 mM NaCl, 10% DMSO 1.0 mM Substrate.
Inhibition of enzymes by the compounds described were determined after a 10 minute preincubation with enzymes in reaction mixtures minus substrate. Reactions were initiated by the addition of substrates. […] All other proteases were assayed at the concentrations that produced approximately 0.1 O.D. change per minute at 410 nm under the standard conditions.

`CCO[C@H]1C(=O)N2C(C(=O)OCC(Cl)(Cl)Cl)=C(C)C3(CC3(c3ccccc3)c3ccccc3)S(=O)(=O)[C@H]12` (stereo partly drawn) [Example 7, 2,2,2-Trichloroethyl-7α-ethoxy-2-spiro(2',2'-diphenyl)cyclo-propyl-3-methyl-3-cephem-4-carboxylate-1,1-dioxide]: the IC50 in assay [1] was 16.1 nM; on cathepsin C, above 10000 nM; on trypsin, above 10000 nM; in assay [2] it was 5.47 nM; at aminopeptidase M it was above 10000 nM.
